The values below come from patent US20070185138A1, “Imidazolopyrimidines used as fungicidal active ingredients” (priority 2004, published 2007).

Series [1] in a line: logP determination by HPLC (EEC Directive 79/831 Annex V. A8). The series is classed as physicochemical. Particulars: HPLC gradient method, acetonitrile/0.1% aqueous phosphoric acid. The procedure:
The logP values were determined in accordance with EEC Directive 79/831 Annex V. A8 by HPLC (gradient method, acetonitrile/0.1% aqueous phosphoric acid).

Series [2] deals with Botrytis cinerea. Description: Botrytis test (cucumber)/protective. The series is classed as in vivo. Particulars: young cucumber plants, protective spray, application rate 750 g/ha, evaluation 5-6 days after inoculation. The procedure:
• Botrytis test (cucumber)/protective • Solvent: 49 parts by weight of N,N-dimethylformamide • Emulsifier: 1 part by weight of alkylaryl polyglycol ether
To produce a suitable preparation of active compound, 1 part by weight of active compound is mixed with the stated amounts of solvent and emulsifier, and the concentrate is diluted with water to the desired concentration.
To test for protective activity, young cucumber plants are sprayed with the preparation of active compound at the stated application rate. One day aft er the treatment, the plants are inoculated with a spore suspension of Botrytis cinerea and then remain at 100% relative hunmdity and 20° C. for 48 h. The plants then remain at 96% relative atmospheric-humidity and a temperature of 10° C.
Evaluation is carried out 5-6 days after the inoculation. 0% means an efficacy which corresponds to that of the control, whereas an efficacy of 100% means that no infection is observed.

Each structure is given as a SMILES string.

In the case of `C[Si](C)(C)CNc1nc2nccn2c(Cl)c1-c1c(F)cc(F)cc1F` [Example 1, 5-chloro-6-(2,4,6-trifluorophenyl-)-7-trimethylsilylmethylaminoimidazo[1,2-a]pyrimidine], the logP (in general, the decadic logarithm of the partition coefficient of the neutral form, usually between octanol and water) in series [1] is reported as 2.09.
In turn, `CC(Nc1nc2nccn2c(Cl)c1-c1c(F)cc(F)cc1F)[Si](C)(C)C` (stereo not drawn) [Example 2, 5-chloro-6-(2,4,6-trifloropheny)-7-(1-trimethylsilylethylamino)imidazo[1,2-a]pyrimidine] gave a lipophilicity (logP) in series [1] of 2.18. This molecule also came in with an efficacy in series [2] of over 80%.
